Reference: US12577231B2, “Androgen receptor PROTACS” (GlaxoSmithKline Intellectual Property Development Limited, priority 2023, dated 2026)

target: T1, Androgen Receptor dual T878A/L702H mutant protein (Homo sapiens, UniProt P10275, L702H/T878A); experiment: Dual Mutant (T878A/L702H) Androgen Receptor Degradation Assay (HTRF, MDA-PCa-2b cells); format: cell-based; conditions: 18 h, 18 h incubation, read-out: mean asymptote max
T1 construct: host or cells: MDA-PCa-2b
T1 sequence (P10275 1-920 L702H/T878A): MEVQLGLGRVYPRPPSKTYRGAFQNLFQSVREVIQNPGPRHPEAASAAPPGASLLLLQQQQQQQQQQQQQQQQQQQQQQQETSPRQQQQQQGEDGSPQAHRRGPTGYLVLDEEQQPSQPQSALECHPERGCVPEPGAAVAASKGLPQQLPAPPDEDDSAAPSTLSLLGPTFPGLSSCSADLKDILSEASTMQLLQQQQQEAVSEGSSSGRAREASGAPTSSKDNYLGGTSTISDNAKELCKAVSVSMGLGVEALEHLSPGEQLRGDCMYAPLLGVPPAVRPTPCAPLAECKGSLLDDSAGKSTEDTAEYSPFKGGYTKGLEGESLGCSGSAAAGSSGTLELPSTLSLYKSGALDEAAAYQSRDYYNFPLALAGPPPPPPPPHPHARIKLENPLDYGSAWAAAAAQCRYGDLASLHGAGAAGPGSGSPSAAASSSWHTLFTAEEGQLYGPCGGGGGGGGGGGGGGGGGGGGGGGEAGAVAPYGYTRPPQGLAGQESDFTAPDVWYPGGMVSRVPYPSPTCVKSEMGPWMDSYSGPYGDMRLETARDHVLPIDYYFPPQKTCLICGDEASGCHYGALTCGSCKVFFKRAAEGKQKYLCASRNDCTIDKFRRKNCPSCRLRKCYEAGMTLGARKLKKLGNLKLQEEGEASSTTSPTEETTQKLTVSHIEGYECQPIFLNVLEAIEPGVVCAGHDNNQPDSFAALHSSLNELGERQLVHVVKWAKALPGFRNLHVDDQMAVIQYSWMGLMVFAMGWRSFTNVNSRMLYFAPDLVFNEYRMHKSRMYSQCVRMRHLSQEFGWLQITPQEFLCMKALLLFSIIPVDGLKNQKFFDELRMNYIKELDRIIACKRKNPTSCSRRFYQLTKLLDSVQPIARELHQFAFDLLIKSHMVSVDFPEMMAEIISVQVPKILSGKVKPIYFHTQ
Protocol: Degradation of Androgen Receptor dual T878A/L702H mutant protein in human MDA-PCa-2b (ATCC) cells treated with PROTACs was quantified using the HTRF Human Androgen Receptor Detection Kit (PerkinElmer) in 384 well assay plate format. 10 mM DMSO (Sigma-Aldrich) stock solutions of PROTACs were prepared and diluted across an 11 concentration, 3-fold increment range, and 25 nL dispensed into a white opaque bottomed 384 well assay plate (Thermofisher) using an acoustic ECHO dispenser (Labcyte). Cells were cultured in growth medium (BRFF—HPC-1 (Athena ES) supplemented with 20% FBS (Gibco), penicillin 50U/mL and streptomycin 50 μg/mL (Gibco, #15140-122)) in collagen I or poly-D-lysine coated T175 flasks (Corning, #356487 or #356539, respectively). For the assay, cells were harvested from the flask, centrifuged at 200 g for 5 min and then resuspended in the growth medium. 25 μl of cell suspension containing 10,000 cells was dispensed into each well of the assay plate containing the test compounds, which was then incubated for 18 h at 37° C./5% CO2. Control wells were included on each assay plate, with assay medium without cells being the no AR remaining 100% effect control, and cells treated with DMSO vehicle only, without PROTAC, the 0% effect control. After 18 h incubation 8 μl of supplemented lysis buffer from HTRF kit was added to each well and the plate shaken at 500 rpm for 1 h at room temperature. 8 μl of antibody mix in Detection buffer from HTRF kit was added to each well and the plate was incubated for 2 h in dark at mom temperature. The fluorescence was measured at both 620 nm and 665 nm using an excitation wavelength of 337 nm with a PHERAstar microplate reader (BMG Labtech) and the % AR protein remaining in each well was calculated by normalising the HTRF ratio (665 nm signal/620 nm signal) value to the control wells mentioned above. Parameters corresponding to the potency and efficacy estimates of the PROTACs were obtained from these normalised values using curve fitting software (IDBS ActivityBase). These included the DC50 and the Dmax estimates. Two versions of the DC50, called relative DC50 and absolute DC50, were typically generated. These are the inflection point of a fitted 4 parameter sigmoidal response curve and the interpolated concentration of PROTAC corresponding to 50% of the protein being degraded, respectively. The Dmax parameter was the maximum experimentally observed degradation and the asymptote max parameter the fitted response curve asymptote maximum.

Dmax, ≥ 50%:
CC1(C)[C@H](NC(=O)c2ccc(N3CCC(CN4CCC(n5ncc6c(N7CCC(=O)NC7=O)cccc65)CC4)CC3)c(F)c2)C(C)(C)[C@H]1Oc1cnc(C#N)c(Cl)c1 [Example 3, N-((1r,3r)-3-((5-Chloro-6-cyanopyridin-3-yl)oxy)-2,2,4,4-tetramethylcyclobutyl)-4-(4-((4-(4-(2,4-dioxotetrahydropyrimidin-1(2H)-yl)-1H-indazol-1-yl)piperidin-1-yl)methyl)piperidin-1-yl)-3-fluorobenzamide]
COc1c(C#N)ccc(O[C@H]2C(C)(C)[C@H](NC(=O)c3ccc(N4CCC(CN5CCC(n6ncc7c(N8CCC(=O)NC8=O)cccc76)CC5)CC4)c(F)c3)C2(C)C)c1C [Example 5, N-((1r,3r)-3-(4-Cyano-3-methoxy-2-methylphenoxy)-2,2,4,4-tetramethylcyclobutyl)-4-(4-((4-(4-(2,4-dioxotetrahydropyrimidin-1(2H)-yl)-1H-indazol-1-yl)piperidin-1-yl)methyl)piperidin-1-yl)-3-fluorobenzamide]
CC1(C)[C@H](NC(=O)c2ccc(N3CCC(CN4CCC(n5ncc6c(N7CCC(=O)NC7=O)cccc65)CC4)CC3)c(F)c2)C(C)(C)[C@H]1Oc1ccc(C#N)c2ncccc12 [Example 6, N-((1r,3r)-3-((8-Cyanoquinolin-5-yl)oxy)-2,2,4,4-tetramethylcyclobutyl)-4-(4-((4-(4-(2,4-dioxotetrahydropyrimidin-1(2H)-yl)-1H-indazol-1-yl)piperidin-1-yl)methyl)piperidin-1-yl)-3-fluorobenzamide]
CC1(C)[C@H](NC(=O)c2ccc(N3CCC(CN4CCC(n5ncc6c(N7CCC(=O)NC7=O)cccc65)CC4)CC3)c(F)c2)C(C)(C)[C@H]1Oc1ccc(C#N)c2c1CCCO2 [Example 8, N-((1r,3r)-3-((8-Cyanochroman-5-yl)oxy)-2,2,4,4-tetramethylcyclobutyl)-4-(4-((4-(4-(2,4-dioxotetrahydropyrimidin-1(2H)-yl)-1H-indazol-1-yl)piperidin-1-yl)methyl)piperidin-1-yl)-3-fluorobenzamide]
CC1(C)[C@H](NC(=O)c2ccc(N3CCC(CN4CCC(n5ncc6c(N7CCC(=O)NC7=O)c(F)ccc65)CC4)CC3)c(F)c2)C(C)(C)[C@H]1Oc1ccc(C#N)c(Cl)c1 [Example 13, N-((1r,3r)-3-(3-Chloro-4-cyanophenoxy)-2,2,4,4-tetramethylcyclobutyl)-4-(4-((4-(4-(2,4-dioxotetrahydropyrimidin-1(2H)-yl)-5-fluoro-1H-indazol-1-yl)piperidin-1-yl)methyl)piperidin-1-yl)-3-fluorobenzamide]
COc1cc(O[C@H]2C(C)(C)[C@H](NC(=O)c3ccc(N4CCC(CN5CCC(n6ncc7c(N8CCC(=O)NC8=O)cccc76)CC5)CC4)cc3)C2(C)C)ccc1C#N [Example 15, N-((1r,3r)-3-(4-Cyano-3-methoxyphenoxy)-2,2,4,4-tetramethylcyclobutyl)-4-(4-((4-(4-(2,4-dioxotetrahydropyrimidin-1(2H)-yl)-1H-indazol-1-yl)piperidin-1-yl)methyl)piperidin-1-yl)benzamide]
COc1cc(O[C@H]2C(C)(C)[C@H](NC(=O)c3ccc(N4CCC(CN5CCC(n6ccc7c(N8CCC(=O)NC8=O)cccc76)CC5)CC4)cc3)C2(C)C)ccc1C#N [Example 16, N-((1r,3r)-3-(4-Cyano-3-methoxyphenoxy)-2,2,4,4-tetramethylcyclobutyl)-4-(4-((4-(4-(2,4-dioxotetrahydropyrimidin-1(2H)-yl)-1H-indol-1-yl)piperidin-1-yl)methyl)piperidin-1-yl)benzamide]
